The numbers were not newly measured in patent US11103547B2, “Methods for disrupting biofilms” (priority 2016, dated 2021), which cites them from elsewhere.

This data set has as its system MRSA biofilm. Conditions: shown previously; positive control.

As to `CCCCCCCCCC(=O)N[C@@H](Cc1c[nH]c2ccccc12)C(=O)N[C@H](CC(N)=O)C(=O)N[C@@H](CC(=O)O)C(=O)N[C@@H]1C(=O)NCC(=O)N[C@@H](CCCN)C(=O)N[C@@H](CC(=O)O)C(=O)N[C@H](C)C(=O)N[C@@H](CC(=O)O)C(=O)NCC(=O)N[C@H](CO)C(=O)N[C@@H]([C@H](C)CC(=O)O)C(=O)N[C@@H](CC(=O)c2ccccc2N)C(=O)O[C@@H]1C` [Daptomycin], the “disruption of biomass biofilm of MRSA” value is “disrupt biomass biofilm of MRSA”.
